Measurements from patent US8420676B2, “Oxazolidinone derivatives” (Dong-A Pharmaceuticals Co. Ltd., priority 2003, dated 2013).
≈ marks a conversion by molar mass, not a printed value.

Assays:
[1] = test system: vancomycin resistant Enterococci (VRE); assay: Assay for in vitro antibacterial activity, agar dilution (VRE); conditions: Enterococcus, read-out: Minimum Inhibitory Concentration (MIC50) VRE
[2] = test system: methicillin resistant Staphylococcus aureus (MRSA); assay: Assay for in vitro antibacterial activity, agar dilution (MRSA); conditions: read-out: Minimum Inhibitory Concentration (MIC50) MRSA

Compound: CC(=O)NC[C@H]1CN(c2ccc(-c3ccc(-n4cc(COC(=O)CN)nn4)nc3)c(F)c2)C(=O)O1 [Compound 2, (S)-3-(4-(2-(4-glycyloxymethyl-1,2,3-triazol-1-yl)pyridin-5-yl)-3-fluorophenyl)-2-oxo-5-oxazolidinylmethyl acetamide trifluoroacetic acid]
- MIC50 [1]: 0.125 µg/mL (≈ 0.259 µM)
- MIC50 [2]: 0.5 µg/mL (≈ 1.03 µM)

Compound: CC(=O)NC[C@H]1CN(c2ccc(-c3ccc(-c4nc(COC(=O)CN)cs4)cc3)c(F)c2)C(=O)O1 [Compound 30, (S)-3-(4-(4-(4-glycyloxymethylthiazol-2-yl)phenyl)-3-fluorophenyl)-2-oxo-5-oxazolidinylmethyl acetamide trifluoroacetic acid]
- MIC50 [1]: 0.5 µg/mL (≈ 1 µM)
- MIC50 [2]: 0.5 µg/mL (≈ 1 µM)

Compound: Cc1nc(-c2ccc(-c3ccc(N4C[C@H](CO)OC4=O)cc3F)cc2)oc1C [Compound 21, (R)-3-(4-(4-(4,5-dimethyloxazol-2-yl)phenyl)-3-fluorophenyl)-5-hydroxymethyl oxazolidin-2-one]
- MIC50 [1]: 1 µg/mL (≈ 2.62 µM)
- MIC50 [2]: 1 µg/mL (≈ 2.62 µM)

Compound: O=C1O[C@@H](Cn2ccnn2)CN1c1ccc(-c2ccc(-c3nc(CO)cs3)cc2)c(F)c1 [Compound 36, (R)-3-(4-(4-(4-hydroxymethylthiazol-2-yl)phenyl)-3-fluorophenyl)-5-([1,2,3]triazol-1-yl)methyl oxazolidin-2-one]
- MIC50 [1]: 0.5 µg/mL (≈ 1.11 µM)
- MIC50 [2]: 0.5 µg/mL (≈ 1.11 µM)

Compound: CC(=O)NC[C@H]1CN(c2ccc(-c3ccc(C4=NC(CO)CO4)cc3)c(F)c2)C(=O)O1 (stereo partly drawn) [Compound 26, (S)-3-(4-(4-(4(S)-hydroxymethyl-4,5-dihydroxazole-2-yl)phenyl)-3-fluorophenyl)-2-oxo-5-oxazolidinylmethyl acetamide]
- MIC50 [1]: 0.5 µg/mL (≈ 1.17 µM)
- MIC50 [2]: 0.5 µg/mL (≈ 1.17 µM)

Compound: O=C1O[C@@H](CO)CN1c1ccc(-c2ccc(-n3nccn3)nc2)c(F)c1 [Compound 29, (R)-3-(4-(2-([1,2,3]triazol-2-yl)pyridin-5-yl)-3-fluorophenyl)-5-hydroxymethyl oxazolidin-2-one]
- MIC50 [1]: 1 µg/mL (≈ 2.81 µM)
- MIC50 [2]: 0.5 µg/mL (≈ 1.41 µM)

Compound: Cc1nc(-c2ccc(-c3ccc(N4C[C@H](COC(=O)CN)OC4=O)cc3F)cc2)oc1C [Compound 23, (R)-3-(4-(4-(4,5-dimethyloxazol-2-yl)phenyl)-3-fluorophenyl)-5-glycyloxymethyl oxazolidin-2-one trifluoroacetic acid]
- MIC50 [1]: 2 µg/mL (≈ 4.55 µM)
- MIC50 [2]: 2 µg/mL (≈ 4.55 µM)

Compound: N#CCc1csc(-c2ccc(-c3ccc(N4C[C@H](CO)OC4=O)cc3F)cc2)n1 [Compound 32, (R)-3-(4-(4-(4-cyanomethylthiazol-2-yl)phenyl)-3-fluorophenyl)-5-hydroxymethyl oxazolidin-2-one]
- MIC50 [1]: 1 µg/mL (≈ 2.44 µM)
- MIC50 [2]: 0.5 µg/mL (≈ 1.22 µM)

Compound: Cc1nnc(-c2ccc(-c3ccc(N4C[C@H](Cn5ccnn5)OC4=O)cc3F)cn2)o1 [Compound 13, (R)-3-(4-(2-(2-methyl-[1,3,4]oxadiazol-5-yl)pyridin-5-yl)-3-fluorophenyl)-5-([1,2,3]triazol-1-yl)methyl oxazolidin-2-one]
- MIC50 [1]: 0.25 µg/mL (≈ 0.593 µM)
- MIC50 [2]: 0.25 µg/mL (≈ 0.593 µM)

Compound: Cn1nnc(-c2ccc(-c3c(F)cc(N4C[C@H](CO)OC4=O)cc3F)cn2)n1 [Compound 38, (R)-3-(4-(2-(2-methyltetrazol-5-yl)pyridin-5-yl)-3,5-difluorophenyl)-5-hydroxymethyl oxazolidin-2-one]
- MIC50 [1]: 1 µg/mL (≈ 2.58 µM)
- MIC50 [2]: 0.5 µg/mL (≈ 1.29 µM)

Compound: Cn1nnc(-c2ccc(-c3ccc(N4C[C@H](COP(=O)(O)O)OC4=O)cc3F)cn2)n1 [Compound 72, mono-[(R)-[3-(4-(2-(2-methyltetrazol-5-yl)pyridin-5-yl)-3-fluorophenyl)-2-oxo-5-oxazolidinyl]methyl]phosphate]
- MIC50 [1]: 32 µg/mL (≈ 71.1 µM)
- MIC50 [2]: 32 µg/mL (≈ 71.1 µM)

Compound: Cn1nnc(-c2ccc(-c3ccc(N4C[C@H](CF)OC4=O)cc3F)cn2)n1 [Compound 18, (R)-3-(4-(2-(2-methyltetrazol-5-yl)pyridin-5-yl)-3-fluorophenyl)-5-fluoromethyl oxazolidin-2-one]
- MIC50 [1]: 2 µg/mL (≈ 5.37 µM)
- MIC50 [2]: 1 µg/mL (≈ 2.69 µM)

Compound: CC(=O)NC[C@H]1CN(c2ccc(-c3ccc(-c4nc(CC#N)cs4)cc3)c(F)c2)C(=O)O1 [Compound 31, (S)-3-(4-(4-(4-cyanomethylthiazol-2-yl)phenyl)-3-fluorophenyl)-2-oxo-5-oxazolidinylmethyl acetamide]
- MIC50 [1]: 0.5 µg/mL (≈ 1.11 µM)
- MIC50 [2]: 0.5 µg/mL (≈ 1.11 µM)

Compound: Cl.Cn1nnnc1-c1ccc(-c2ccc(N3C[C@H](COC(=O)CN)OC3=O)cc2F)cn1 [Compound 63, (R)-3-(4-(2-(1-methyltetrazol-5-yl)pyridin-5-yl)-3-fluorophenyl)-5-glycyloxymethyl oxazolidin-2-one hydrochloride]
- MIC50 [1]: 0.25 µg/mL
- MIC50 [2]: 0.5 µg/mL

Compound: NCC(=O)OCc1csc(-c2ccc(-c3ccc(N4C[C@H](Cn5ccnn5)OC4=O)cc3F)cc2)n1 [Compound 37, (R)-3-(4-(4-(4-glycyloxymethylthiazol-2-yl)phenyl)-3-fluorophenyl)-5-([1,2,3]triazol-1-yl)methyl oxazolidin-2-one trifluoroacetic acid]
- MIC50 [1]: 0.5 µg/mL (≈ 0.983 µM)
- MIC50 [2]: 0.5 µg/mL (≈ 0.983 µM)

Compound: Cc1nnc(-c2ccc(-c3c(F)cc(N4C[C@H](CO)OC4=O)cc3F)cn2)o1 [Compound 39, (R)-3-(4-(2-(2-methyl-[1,3,4]oxadiazol-5-yl)pyridin-5-yl)-3,5-difluorophenyl)-5-hydroxymethyl oxazolidin-2-one]
- MIC50 [1]: 1 µg/mL (≈ 2.58 µM)
- MIC50 [2]: 1 µg/mL (≈ 2.58 µM)

Compound: CC(=O)NC[C@H]1CN(c2ccc(N3CCOCC3)c(F)c2)C(=O)O1 [Zyvox, reference compound]
- MIC50 [1]: 2 µg/mL (≈ 5.93 µM)
- MIC50 [2]: 2 µg/mL (≈ 5.93 µM)

Compound: CC(C)[C@H](N)C(=O)OC[C@H]1CN(c2ccc(-c3ccc(-c4nnnn4C)nc3)c(F)c2)C(=O)O1.Cl [Compound 67, (R)-3-(4-(2-(1-methyltetrazol-5-yl)pyridin-5-yl)-3-fluorophenyl)-5-(L-valyloxy)methyl oxazolidin-2-one hydrochloride]
- MIC50 [1]: 0.25 µg/mL
- MIC50 [2]: 0.5 µg/mL

Compound: Cn1nnc(-c2ccc(-c3ccc(N4C[C@H](Cn5nccn5)OC4=O)cc3F)cn2)n1 [Compound 8, (R)-3-(4-(2-(2-methyltetrazol-5-yl)pyridin-5-yl)-3-fluorophenyl)-5-([1,2,3]triazol-2-yl)methyl oxazolidin-2-one]
- MIC50 [1]: 16 µg/mL (≈ 38 µM)
- MIC50 [2]: 16 µg/mL (≈ 38 µM)

Compound: Cn1nnc(-c2ccc(-c3ccc(N4C[C@H](Cn5ccnn5)OC4=O)cc3F)cn2)n1 [Compound 9, (R)-3-(4-(2-(2-methyltetrazol-5-yl)pyridin-5-yl)-3-fluorophenyl)-5-([1,2,3]triazol-1-yl)methyl oxazolidin-2-one]
- MIC50 [1]: 0.125 µg/mL (≈ 0.297 µM)
- MIC50 [2]: 0.25 µg/mL (≈ 0.593 µM)

Compound: Cn1nnnc1-c1ccc(-c2ccc(N3C[C@H](Cn4ccnn4)OC3=O)cc2F)cn1 [Compound 71, (R)-3-(4-(2-(1-methyltetrazol-5-yl)pyridin-5-yl)-3-fluorophenyl)-5-([1,2,3]triazol-1-yl)methyl oxazolidin-2-one]
- MIC50 [1]: 0.125 µg/mL (≈ 0.297 µM)
- MIC50 [2]: 0.5 µg/mL (≈ 1.19 µM)

Compound: NCC(=O)OC[C@H]1CN(c2ccc(-c3ccc(-n4nccn4)nc3)c(F)c2)C(=O)O1 [Compound 35, (R)-3-(4-(2-([1,2,3]triazol-2-yl)pyridin-5-yl)-3-fluorophenyl)-5-glycyloxymethyl oxazolidin-2-one trifluoroacetic acid]
- MIC50 [1]: 1 µg/mL (≈ 2.42 µM)
- MIC50 [2]: 1 µg/mL (≈ 2.42 µM)

Compound: CC(=O)NC[C@H]1CN(c2ccc(-c3ccc(C4=NOC(COC(=O)CN)C4)nc3)c(F)c2)C(=O)O1 (stereo partly drawn) [Compound 7, (S)-3-(4-(2-(5-glycyloxymethyl-4,5-dihydroisoxazole-3-yl)pyridin-5-yl)-3-fluorophenyl)-2-oxo-5-oxazolidinylmethyl acetamide trifluoroacetic acid]
- MIC50 [1]: 0.5 µg/mL (≈ 1.03 µM)
- MIC50 [2]: 0.5 µg/mL (≈ 1.03 µM)

Compound: CC(=O)NC[C@H]1CN(c2ccc(-c3ccc(N4CC(COC(=O)CN)CC4=O)nc3)c(F)c2)C(=O)O1 (stereo partly drawn) [Compound 1, (S)-3-(4-(2-(2-oxo-4-glycyloxymethylpylolidin-1-yl)pyridin-5-yl)-3-fluorophenyl)-2-oxo-5-oxazolidinylmethyl acetamide trifluoroacetic acid]
- MIC50 [1]: 0.25 µg/mL (≈ 0.501 µM)
- MIC50 [2]: 1 µg/mL (≈ 2 µM)

Compound: O=C1O[C@@H](Cn2ccnn2)CN1c1ccc(-c2ccc(-n3cncn3)nc2)c(F)c1 [Compound 14, (R)-3-(4-(2-([1,2,4]triazol-1-yl)pyridin-5-yl)-3-fluorophenyl)-5-([1,2,3]triazol-1-yl)methyl oxazolidin-2-one]
- MIC50 [1]: 0.25 µg/mL (≈ 0.615 µM)
- MIC50 [2]: 0.25 µg/mL (≈ 0.615 µM)

Compound: CNC[C@H]1CN(c2ccc(-c3ccc(-c4nnn(C)n4)nc3)c(F)c2)C(=O)O1 [Compound 41]
- MIC50 [1]: 8 µg/mL (≈ 20.9 µM)
- MIC50 [2]: 4 µg/mL (≈ 10.4 µM)

Compound: CC(=O)NC[C@H]1CN(c2ccc(-c3ccc(-c4cc(COC(=O)CN)on4)nc3)c(F)c2)C(=O)O1 [Compound 3, (S)-3-(4-(2-(5-glycyloxymethylisoxazol-3-yl)pyridin-5-yl)-3-fluorophenyl)-2-oxo-5-oxazolidinylmethyl acetamide trifluoroacetic acid]
- MIC50 [1]: 0.25 µg/mL (≈ 0.517 µM)
- MIC50 [2]: 0.25 µg/mL (≈ 0.517 µM)

Compound: CN(C)CC1CN(c2ccc(-c3ccc(-c4nnn(C)n4)nc3)c(F)c2)C(=O)O1 (stereo in doubt) [Compound 40, (R)-3-(4-(2-(2-methyltetrazol-5-yl)pyridin-5-yl)-3-fluorophenyl)-5-(N,N-dimethylaminomethyl)oxazolidin-2-one]
- MIC50 [1]: 8 µg/mL (≈ 20.1 µM)
- MIC50 [2]: 4 µg/mL (≈ 10.1 µM)

Compound: COC[C@H]1CN(c2ccc(-c3ccc(-c4nnn(C)n4)nc3)c(F)c2)C(=O)O1 [Compound 33, (R)-3-(4-(2-(2-methyltetrazol-5-yl)pyridin-5-yl)-3-fluorophenyl)-5-methoxymethyl oxazolidin-2-one]
- MIC50 [1]: 2 µg/mL (≈ 5.2 µM)
- MIC50 [2]: 2 µg/mL (≈ 5.2 µM)

Compound: CC(=O)NC[C@H]1CN(c2ccc(-c3ccc(N4CCC(OC(=O)CN)C4=O)nc3)c(F)c2)C(=O)O1 (stereo partly drawn) [Compound 5, (S)-3-(4-(2-(2-oxo-3-glycyloxypyrrolidine-1-yl)pyridin-5-yl)-3-fluorophenyl)-2-oxo-5-oxazolidinylmethyl acetamide trifluoroacetic acid]
- MIC50 [1]: 0.25 µg/mL (≈ 0.515 µM)
- MIC50 [2]: 0.5 µg/mL (≈ 1.03 µM)

Compound: N#CCc1csc(-c2ccc(-c3ccc(N4C[C@H](COC(=O)CN)OC4=O)cc3F)cc2)n1 [Compound 34, (R)-3-(4-(4-(4-cyanomethylthiazol-2-yl)phenyl)-3-fluorophenyl)-5-glycyloxymethyl oxazolidin-2-one trifluoroacetic acid]
- MIC50 [1]: 1 µg/mL (≈ 2.14 µM)
- MIC50 [2]: 1 µg/mL (≈ 2.14 µM)
